ChEMBL document CHEMBL3817747 (J Med Chem, 2016)

target: Neuraminidase (Influenza A virus, UniProt B4URF0); type: cell-based, Influenza A virus (A/WSN/1933(H1N1)), HEK293
Sequence (B4URF0 whole entry): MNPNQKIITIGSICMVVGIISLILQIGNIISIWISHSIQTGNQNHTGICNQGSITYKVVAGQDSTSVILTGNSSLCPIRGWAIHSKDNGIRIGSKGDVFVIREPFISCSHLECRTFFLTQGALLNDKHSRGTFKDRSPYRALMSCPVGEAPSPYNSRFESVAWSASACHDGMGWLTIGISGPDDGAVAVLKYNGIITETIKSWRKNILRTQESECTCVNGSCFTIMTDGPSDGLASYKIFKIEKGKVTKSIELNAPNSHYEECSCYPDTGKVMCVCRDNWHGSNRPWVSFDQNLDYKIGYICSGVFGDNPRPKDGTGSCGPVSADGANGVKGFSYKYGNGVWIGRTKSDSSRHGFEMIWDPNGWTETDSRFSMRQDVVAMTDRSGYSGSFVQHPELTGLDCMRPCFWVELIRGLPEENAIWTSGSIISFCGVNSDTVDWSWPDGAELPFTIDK

Q: For `CCCCCCOP(=O)(O)[C@H]1C[C@@H](NC(=N)N)[C@H]([C@@H](NC(C)=O)C(CC)CC)[C@@H]1O`, which IC50 is on record?
A: The IC50 was 0.5 nM.

Q: For `CCOP(=O)(O)[C@@H]1C[C@@H]([C@@H](NC(C)=O)C(CC)CC)[C@H](NC(=N)N)C1`, which IC50 is on record?
A: Its IC50 is 1 nM.

Q: With `CCC(CC)[C@H](NC(C)=O)[C@@H]1C[C@@H](P(=O)(O)O)C[C@H]1NC(=N)N` as the compound, how does the IC50 read?
A: Its IC50 is 2.9 nM.

Q: With `CCOP(=O)(O)[C@H]1C[C@@H](NC(=N)N)[C@H]([C@@H](NC(C)=O)C(CC)CC)[C@@H]1O` as the compound, how does the IC50 read?
A: Its IC50 is 0.9 nM.

Q: For `CCCCCCOP(=O)(O)[C@@H]1C[C@@H]([C@@H](NC(C)=O)C(CC)CC)[C@H](NC(=N)N)C1`, which IC50 is on record?
A: The IC50 was 1.6 nM.

Q: `CCCCCCOP(=O)(O)C1=C[C@@H]([C@@H](NC(C)=O)C(CC)CC)[C@H](NC(=N)N)C1` was tested. Which IC50 did it give?
A: Its IC50 is 1.5 nM.
